From PubChem BioAssay (NCI)
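Values below derive from 48-hour exposures of cells grown in 96-well plates, with endpoints linearly interpolated between the two concentrations bracketing the appropriate inhibition level. TGI is the concentration that stops growth completely.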

Legend:
Experiment in all cases: growth of human tumour cells (NCI), 48 h
SNB-19 CNS = tested on: SNB-19 CNS
MCF7 breast = tested on: MCF7 breast
NCI-H522 lung = tested on: NCI-H522 lung
CAKI-1 renal = tested on: CAKI-1 renal
MOLT-4 leukemia = tested on: MOLT-4 leukemia
K-562 leukemia = tested on: K-562 leukemia
EKVX NSCLC = tested on: EKVX NSCLC
HOP-62 NSCLC = tested on: HOP-62 NSCLC
SK-MEL-5 melanoma = tested on: SK-MEL-5 melanoma
HS 578T breast = tested on: HS 578T breast
UACC-62 melanoma = tested on: UACC-62 melanoma
T-47D breast = tested on: T-47D breast
SNB-75 CNS = tested on: SNB-75 CNS
SF-268 CNS = tested on: SF-268 CNS
U251 CNS = tested on: U251 CNS
HT29 colon = tested on: HT29 colon
OVCAR-4 ovarian = tested on: OVCAR-4 ovarian
PC-3 prostate = tested on: PC-3 prostate
SK-MEL-2 melanoma = tested on: SK-MEL-2 melanoma
HCT-15 colon = tested on: HCT-15 colon
LOX IMVI melanoma = tested on: LOX IMVI melanoma
UACC-257 melanoma = tested on: UACC-257 melanoma
SN12C renal = tested on: SN12C renal
HCT-116 colon = tested on: HCT-116 colon
SK-MEL-28 melanoma = tested on: SK-MEL-28 melanoma
RXF 393 renal = tested on: RXF 393 renal
MDA-N = tested on: MDA-N
KM12 colon = tested on: KM12 colon
CCRF-CEM leukemia = tested on: CCRF-CEM leukemia
TK-10 renal = tested on: TK-10 renal
BT-549 breast = tested on: BT-549 breast
SW-620 colon = tested on: SW-620 colon
MDA-MB-231 breast = tested on: MDA-MB-231 breast
DU-145 prostate = tested on: DU-145 prostate
M14 melanoma = tested on: M14 melanoma
NCI/ADR-RES ovarian = tested on: NCI/ADR-RES ovarian
OVCAR-3 ovarian = tested on: OVCAR-3 ovarian
SF-295 CNS = tested on: SF-295 CNS
MDA-MB-435 = tested on: MDA-MB-435
IGROV1 ovarian = tested on: IGROV1 ovarian
UO-31 renal = tested on: UO-31 renal
SF-539 CNS = tested on: SF-539 CNS
HOP-92 NSCLC = tested on: HOP-92 NSCLC
A549 NSCLC = tested on: A549 NSCLC
HL-60(TB) leukemia = tested on: HL-60(TB) leukemia
NCI-H226 lung = tested on: NCI-H226 lung
OVCAR-5 ovarian = tested on: OVCAR-5 ovarian
NCI-H23 lung = tested on: NCI-H23 lung
MALME-3M melanoma = tested on: MALME-3M melanoma
NCI-H460 lung = tested on: NCI-H460 lung
786-0 renal = tested on: 786-0 renal
COLO 205 colon = tested on: COLO 205 colon
SK-OV-3 ovarian = tested on: SK-OV-3 ovarian
ACHN renal = tested on: ACHN renal
OVCAR-8 ovarian = tested on: OVCAR-8 ovarian
A498 renal = tested on: A498 renal
RPMI-8226 leukemia = tested on: RPMI-8226 leukemia
HCC-2998 colon = tested on: HCC-2998 colon

For O=C1/C(=N\n2c(-c3ccncc3)n[nH]c2=S)c2cc(Cl)ccc2N1CN1CCCCC1, the TGI (SNB-19 CNS) was greater than 100 µM, the TGI (MCF7 breast) was greater than 100 µM and the TGI (NCI-H522 lung) was 33.2 µM. The TGI (CAKI-1 renal) was greater than 100 µM, the TGI (MOLT-4 leukemia) was 50.3 µM and the TGI (K-562 leukemia) was greater than 100 µM. The TGI (EKVX NSCLC) was greater than 100 µM, the TGI (HOP-62 NSCLC) was greater than 100 µM and the TGI (SK-MEL-5 melanoma) was greater than 100 µM. The TGI (HS 578T breast) was 93.2 µM, the TGI (UACC-62 melanoma) was greater than 100 µM and the TGI (T-47D breast) was greater than 100 µM. The TGI (SNB-75 CNS) was greater than 100 µM, the TGI (SF-268 CNS) was greater than 100 µM and the TGI (U251 CNS) was greater than 100 µM. The TGI (HT29 colon) was greater than 100 µM, the TGI (OVCAR-4 ovarian) was greater than 100 µM and the TGI (PC-3 prostate) was greater than 100 µM. For the same molecule, the TGI (SK-MEL-2 melanoma) was 59.2 µM, the TGI (HCT-15 colon) was greater than 100 µM and the TGI (LOX IMVI melanoma) was 40.2 µM. It also gave a TGI (UACC-257 melanoma) of 76.2 µM, a TGI (SN12C renal) greater than 100 µM and a TGI (HCT-116 colon) greater than 100 µM. For the same molecule, the TGI (SK-MEL-28 melanoma) was greater than 100 µM, the TGI (RXF 393 renal) was 38.3 µM and the TGI (MDA-N) was greater than 100 µM. It also gave a TGI (KM12 colon) greater than 100 µM, a TGI (CCRF-CEM leukemia) of 81.1 µM and a TGI (TK-10 renal) greater than 100 µM. The TGI (BT-549 breast) was greater than 100 µM, the TGI (SW-620 colon) was greater than 100 µM and the TGI (MDA-MB-231 breast) was greater than 100 µM. It also gave a TGI (DU-145 prostate) greater than 100 µM, a TGI (M14 melanoma) greater than 100 µM and a TGI (NCI/ADR-RES ovarian) greater than 100 µM. The TGI (OVCAR-3 ovarian) was greater than 100 µM, the TGI (SF-295 CNS) was greater than 100 µM and the TGI (MDA-MB-435) was greater than 100 µM. For the same molecule, the TGI (IGROV1 ovarian) was 75 µM, the TGI (UO-31 renal) was greater than 100 µM and the TGI (SF-539 CNS) was greater than 100 µM. It also gave a TGI (HOP-92 NSCLC) greater than 100 µM, a TGI (A549 NSCLC) greater than 100 µM and a TGI (HL-60(TB) leukemia) of 47 µM. For the same molecule, the TGI (NCI-H226 lung) was greater than 100 µM, the TGI (OVCAR-5 ovarian) was greater than 100 µM and the TGI (NCI-H23 lung) was greater than 100 µM. It also gave a TGI (MALME-3M melanoma) greater than 100 µM, a TGI (NCI-H460 lung) greater than 100 µM and a TGI (786-0 renal) greater than 100 µM. For the same molecule, the TGI (COLO 205 colon) was greater than 100 µM, the TGI (SK-OV-3 ovarian) was greater than 100 µM and the TGI (ACHN renal) was greater than 100 µM. For the same molecule, the TGI (OVCAR-8 ovarian) was greater than 100 µM and the TGI (A498 renal) was greater than 100 µM.
For O=C1/C(=C/c2ccc(O)c(CN3CCCCC3)c2)CCC/C1=C\c1ccc(O)c(CN2CCCCC2)c1, the TGI (SNB-19 CNS) was 17.7 µM, the TGI (MCF7 breast) was 15.5 µM and the TGI (CAKI-1 renal) was 34.5 µM. For the same molecule, the TGI (RPMI-8226 leukemia) was 35.8 µM, the TGI (MOLT-4 leukemia) was 27 µM and the TGI (K-562 leukemia) was 42.3 µM. It also gave a TGI (EKVX NSCLC) of 25.2 µM, a TGI (HOP-62 NSCLC) of 26.3 µM and a TGI (SK-MEL-5 melanoma) of 27.1 µM. The TGI (HS 578T breast) was 83.8 µM, the TGI (UACC-62 melanoma) was 38.2 µM and the TGI (T-47D breast) was 35.8 µM. The TGI (SNB-75 CNS) was 12.4 µM, the TGI (SF-268 CNS) was 20.8 µM and the TGI (U251 CNS) was 20.5 µM. The TGI (HT29 colon) was 3.7 µM, the TGI (OVCAR-4 ovarian) was 33.2 µM and the TGI (PC-3 prostate) was 44.6 µM. The TGI (SK-MEL-2 melanoma) was 50.6 µM, the TGI (HCT-15 colon) was 29.5 µM and the TGI (LOX IMVI melanoma) was 25.1 µM. For the same molecule, the TGI (UACC-257 melanoma) was 23.9 µM, the TGI (SN12C renal) was 59 µM and the TGI (HCT-116 colon) was 14.7 µM. It also gave a TGI (SK-MEL-28 melanoma) of 31.3 µM, a TGI (RXF 393 renal) of 15.5 µM and a TGI (MDA-N) of 20.6 µM. The TGI (KM12 colon) was 14.8 µM, the TGI (CCRF-CEM leukemia) was 17.7 µM and the TGI (TK-10 renal) was 21.1 µM. The TGI (BT-549 breast) was 31.3 µM, the TGI (SW-620 colon) was 29.1 µM and the TGI (MDA-MB-231 breast) was 17.4 µM. The TGI (DU-145 prostate) was 17.6 µM, the TGI (M14 melanoma) was 44.5 µM and the TGI (NCI/ADR-RES ovarian) was 9.82 µM. The TGI (OVCAR-3 ovarian) was greater than 100 µM, the TGI (SF-295 CNS) was 16.3 µM and the TGI (MDA-MB-435) was 18.2 µM. It also gave a TGI (IGROV1 ovarian) of 29.4 µM, a TGI (UO-31 renal) of 22.5 µM and a TGI (HOP-92 NSCLC) of 12.3 µM. The TGI (A549 NSCLC) was 53.5 µM, the TGI (HL-60(TB) leukemia) was 11.5 µM and the TGI (NCI-H226 lung) was 48.2 µM. The TGI (OVCAR-5 ovarian) was greater than 100 µM, the TGI (NCI-H23 lung) was 20.2 µM and the TGI (MALME-3M melanoma) was 28.7 µM. It also gave a TGI (NCI-H460 lung) of 13.6 µM, a TGI (786-0 renal) of 17.5 µM and a TGI (COLO 205 colon) of 10.4 µM. For the same molecule, the TGI (SK-OV-3 ovarian) was 22.4 µM, the TGI (HCC-2998 colon) was 20.6 µM and the TGI (ACHN renal) was 19.5 µM. For the same molecule, the TGI (OVCAR-8 ovarian) was 29.8 µM and the TGI (A498 renal) was 28.9 µM.
In the case of Cc1csc(-n2nc(C)cc2C)n1, the TGI (SNB-19 CNS) is reported as greater than 100 µM, the TGI (MCF7 breast) is reported as greater than 100 µM and the TGI (NCI-H522 lung) is reported as greater than 100 µM. For the same molecule, the TGI (CAKI-1 renal) was greater than 100 µM, the TGI (RPMI-8226 leukemia) was greater than 100 µM and the TGI (K-562 leukemia) was greater than 100 µM. The TGI (EKVX NSCLC) was greater than 100 µM, the TGI (HOP-62 NSCLC) was greater than 100 µM and the TGI (SK-MEL-5 melanoma) was greater than 100 µM. The TGI (HS 578T breast) was greater than 100 µM, the TGI (UACC-62 melanoma) was greater than 100 µM and the TGI (T-47D breast) was greater than 100 µM. For the same molecule, the TGI (SNB-75 CNS) was greater than 100 µM, the TGI (SF-268 CNS) was greater than 100 µM and the TGI (U251 CNS) was greater than 100 µM. The TGI (HT29 colon) was greater than 100 µM, the TGI (OVCAR-4 ovarian) was greater than 100 µM and the TGI (PC-3 prostate) was greater than 100 µM. For the same molecule, the TGI (SK-MEL-2 melanoma) was greater than 100 µM, the TGI (HCT-15 colon) was greater than 100 µM and the TGI (LOX IMVI melanoma) was greater than 100 µM. The TGI (UACC-257 melanoma) was greater than 100 µM, the TGI (SN12C renal) was greater than 100 µM and the TGI (HCT-116 colon) was greater than 100 µM. It also gave a TGI (SK-MEL-28 melanoma) greater than 100 µM, a TGI (RXF 393 renal) greater than 100 µM and a TGI (MDA-N) greater than 100 µM. It also gave a TGI (KM12 colon) greater than 100 µM, a TGI (CCRF-CEM leukemia) greater than 100 µM and a TGI (TK-10 renal) greater than 100 µM. The TGI (BT-549 breast) was greater than 100 µM, the TGI (SW-620 colon) was greater than 100 µM and the TGI (MDA-MB-231 breast) was greater than 100 µM. It also gave a TGI (DU-145 prostate) greater than 100 µM, a TGI (M14 melanoma) greater than 100 µM and a TGI (NCI/ADR-RES ovarian) greater than 100 µM. It also gave a TGI (OVCAR-3 ovarian) greater than 100 µM, a TGI (SF-295 CNS) greater than 100 µM and a TGI (MDA-MB-435) greater than 100 µM. It also gave a TGI (IGROV1 ovarian) greater than 100 µM, a TGI (UO-31 renal) greater than 100 µM and a TGI (SF-539 CNS) greater than 100 µM. It also gave a TGI (A549 NSCLC) greater than 100 µM, a TGI (HL-60(TB) leukemia) greater than 100 µM and a TGI (NCI-H226 lung) greater than 100 µM. It also gave a TGI (OVCAR-5 ovarian) greater than 100 µM, a TGI (NCI-H23 lung) greater than 100 µM and a TGI (MALME-3M melanoma) greater than 100 µM. It also gave a TGI (NCI-H460 lung) greater than 100 µM, a TGI (786-0 renal) greater than 100 µM and a TGI (COLO 205 colon) greater than 100 µM. The TGI (SK-OV-3 ovarian) was greater than 100 µM, the TGI (HCC-2998 colon) was greater than 100 µM and the TGI (ACHN renal) was greater than 100 µM. For the same molecule, the TGI (OVCAR-8 ovarian) was greater than 100 µM and the TGI (A498 renal) was greater than 100 µM.
